ChEMBL document CHEMBL1149799, “Bioactive peroxides as potential therapeutic agents” (Eur J Med Chem, 2008)

Experiments:
PC-3 = assay: Cytotoxicity against human PC3 cells; format: functional, cell-based; conditions: Homo sapiens, PC-3
SF-295 = assay: Cytotoxicity against human SF295 cells; format: functional, cell-based
HCT-15 = assay: Cytotoxicity against human HCT15 cells; format: functional, cell-based
HCT-116 = assay: Cytotoxicity against human HCT116 cells; format: functional, cell-based
OVCAR-4 = assay: Cytotoxicity against human OVCAR4 cells; format: functional, cell-based
UACC-62 = assay: Cytotoxicity against human UACC62 cells; format: functional
SK-MEL-5 = assay: Cytotoxicity against human SK-MEL-5 cells; format: functional
MDA-MB-435 = assay: Cytotoxicity against human MDA-MB-435 cells; format: functional
CAKI-1 = assay: Cytotoxicity against human CAKI1 cells; format: functional
SK-OV-3 = assay: Cytotoxicity against human SK-OV-3 cells; format: functional, cell-based
[1] = Cytotoxicity against mouse Ehrlich Ascites carcinoma by clonogenic assay; format: functional
786-0 = assay: Cytotoxicity against human renal 7860 cells by soft agar assay; format: functional
[2] = Cytotoxicity against human K652 cells; format: functional
NCI-H23 = assay: Cytotoxicity against human NCI-H23 cells; format: functional, cell-based
U-251 = assay: Cytotoxicity against human U251 cells; format: functional, cell-based
KM12 = assay: Cytotoxicity against human KM12 cells; format: functional, cell-based
SNB-19 = assay: Cytotoxicity against human SNB19 cells; format: functional
SK-MEL-28 = assay: Cytotoxicity against human SK-MEL-28 cells; format: functional
SK-MEL-2 = assay: Cytotoxicity against human SK-MEL-2 cells; format: functional
UACC-257 = assay: Cytotoxicity against human UACC257 cells; format: functional
MDA-N = assay: Cytotoxicity against human MDA-N cells; format: functional
[3] = Cytotoxicity against human RPMI8266 cells; format: functional
HCC 2998 = assay: Cytotoxicity against human HCC2998 cells; format: functional, cell-based
MCF7 = assay: Cytotoxicity against human MCF7 cells; format: functional, cell-based; conditions: Homo sapiens, MCF7; read-out: GI50
[4] = Cytotoxicity against human MCF7/ADR-RES cells; format: functional; conditions: NCI/ADR-RES
ACHN = assay: Cytotoxicity against human ACHN cells; format: functional, cell-based
HT-29 = assay: Cytotoxicity against human HT29 cells; format: functional
[5] = Cytotoxicity against human CCRF-GEM cells; format: functional
OVCAR-3 = assay: Cytotoxicity against human OVCAR-3 cells; format: functional, cell-based
BT-549 = assay: Cytotoxicity against human BT-549 cells; format: functional
SN12C = assay: Cytotoxicity against human SN12C cells; format: functional
A498 = assay: Cytotoxicity against human A498 cells; format: functional
[6] = Cytotoxicity against human HB60 cells; format: functional
DU-145 = assay: Cytotoxicity against human DU145 cells; format: functional, cell-based; conditions: Homo sapiens, DU-145; read-out: GI50
EKVX = assay: Cytotoxicity against human EKVX cells; format: functional
HOP-62 = assay: Cytotoxicity against human HOP62 cells; format: functional
COLO 205 = assay: Cytotoxicity against human COLO205 cells
TK-10 = assay: Cytotoxicity against human TK10 cells; format: functional
NCI-H322M = assay: Cytotoxicity against human NCI-H322M cells; format: functional
IGROV-1 = assay: Cytotoxicity against human IGROV1 cells; format: functional
RXF 393 = assay: Cytotoxicity against human RXF393 cells; format: functional
OVCAR-8 = assay: Cytotoxicity against human OVCAR8 cells; format: functional, cell-based
[7] = Cytotoxicity against human CFUGM; format: functional; conditions: CFU-GM
[8] = Cytotoxicity against mouse Ehrlich Ascites carcinoma by […] assay; format: functional
LOX IMVI = assay: Cytotoxicity against human LOXI MVI cells; format: functional, cell-based
UO-31 = assay: Cytotoxicity against human UO31 cells; format: functional
NCI-H460 = assay: Cytotoxicity against human NCI-H460 cells; format: functional, cell-based; conditions: Homo sapiens, NCI-H460; read-out: GI50
[9] = Cytotoxicity against human RES MDA-MB-231/ATCC cells; format: functional
SNB-75 = assay: Cytotoxicity against human SNB75 cells; format: functional, cell-based
HOP-92 = assay: Cytotoxicity against human HOP92 cells; format: functional
OVCAR-5 = assay: Cytotoxicity against human OVCAR5 cells; format: functional, cell-based
T47D = assay: Cytotoxicity against human T47D cells; format: functional
A549 = assay: Cytotoxicity against human A549 cells; format: functional, cell-based; conditions: Homo sapiens, A549
SW-620 = assay: Cytotoxicity against human SW620 cells; format: functional
MOLT-4 = assay: Cytotoxicity against human MOLT4 cells
[10] = target: Prostaglandin G/H synthase 2 (Homo sapiens, UniProt P35354); assay: Inhibition of cyclooxygenase-2
Prostaglandin G/H synthase 2, sequence (P35354 whole entry): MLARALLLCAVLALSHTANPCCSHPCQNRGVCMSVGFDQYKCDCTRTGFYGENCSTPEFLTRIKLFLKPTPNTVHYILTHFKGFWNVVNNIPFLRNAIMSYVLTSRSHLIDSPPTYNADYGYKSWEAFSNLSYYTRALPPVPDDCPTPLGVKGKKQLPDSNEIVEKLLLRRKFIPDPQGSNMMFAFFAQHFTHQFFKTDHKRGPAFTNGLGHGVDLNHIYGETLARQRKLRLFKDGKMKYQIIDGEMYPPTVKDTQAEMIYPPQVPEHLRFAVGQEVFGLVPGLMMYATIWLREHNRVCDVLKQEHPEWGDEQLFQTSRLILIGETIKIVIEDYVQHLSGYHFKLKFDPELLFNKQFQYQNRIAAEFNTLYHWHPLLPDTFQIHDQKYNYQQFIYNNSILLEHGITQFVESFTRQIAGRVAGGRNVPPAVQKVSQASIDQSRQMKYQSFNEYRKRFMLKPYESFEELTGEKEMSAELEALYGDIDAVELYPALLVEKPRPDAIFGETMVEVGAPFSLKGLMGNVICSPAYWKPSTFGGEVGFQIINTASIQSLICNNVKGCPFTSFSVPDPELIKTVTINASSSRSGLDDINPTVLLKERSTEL

[11] = target: Prostaglandin G/H synthase 1 (Homo sapiens, UniProt P23219); assay: Inhibition of cyclooxygenase-1
Prostaglandin G/H synthase 1, sequence (P23219 whole entry): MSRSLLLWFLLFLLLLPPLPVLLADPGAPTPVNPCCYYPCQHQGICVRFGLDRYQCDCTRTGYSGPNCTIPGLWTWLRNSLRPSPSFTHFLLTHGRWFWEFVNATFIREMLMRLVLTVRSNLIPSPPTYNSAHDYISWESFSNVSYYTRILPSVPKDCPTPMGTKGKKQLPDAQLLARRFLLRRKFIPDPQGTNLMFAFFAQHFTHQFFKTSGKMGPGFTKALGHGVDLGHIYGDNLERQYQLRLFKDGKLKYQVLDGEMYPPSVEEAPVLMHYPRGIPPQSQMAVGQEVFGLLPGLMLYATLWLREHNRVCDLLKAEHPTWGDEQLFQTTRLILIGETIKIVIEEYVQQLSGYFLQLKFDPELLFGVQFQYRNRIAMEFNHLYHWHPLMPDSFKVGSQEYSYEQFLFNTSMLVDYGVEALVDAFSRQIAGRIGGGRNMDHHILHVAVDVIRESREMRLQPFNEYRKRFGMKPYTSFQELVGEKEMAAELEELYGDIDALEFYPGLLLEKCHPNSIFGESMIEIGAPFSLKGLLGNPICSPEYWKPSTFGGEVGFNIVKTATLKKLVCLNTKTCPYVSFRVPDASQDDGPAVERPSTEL

P388 = assay: Cytotoxicity against mouse P388 cells at 0.5 ug/mL; format: functional
HCT-8 = assay: Cytotoxicity against human HCT8 cells at 10 ug/mL; format: functional

C[C@H]1[C@H](O[C@@H]2O[C@@H]3O[C@]4(C)CC[C@H]5[C@H](C)CC[C@@H]([C@H]2C)[C@@]35OO4)O[C@@H]2O[C@]3(C)CC[C@H]4[C@H](C)CC[C@@H]1[C@@]24OO3
GI50 (PC-3): 15 nM | GI50 (SF-295): 590 nM | GI50 (HCT-15): 24 nM | GI50 (HCT-116): 19 nM | GI50 (OVCAR-4): 290 nM | GI50 (UACC-62): 81 nM | GI50 (SK-MEL-5): 53 nM | GI50 (MDA-MB-435): 61 nM | GI50 (CAKI-1): 280 nM | GI50 (SK-OV-3): 480 nM | IC50 [1]: 55600 nM | GI50 (786-0): 370 nM | GI50 [2]: 68 nM | GI50 (NCI-H23): 46 nM | GI50 (U-251): 65 nM | GI50 (KM12): 33 nM | GI50 (SNB-19): 1710 nM | GI50 (SK-MEL-28): 12300 nM | GI50 (SK-MEL-2): 500 nM | GI50 (UACC-257): 93 nM | GI50 (MDA-N): 590 nM | GI50 [3]: 13 nM | GI50 (HCC 2998): 450 nM | GI50 (MCF7): 110 nM | GI50 [4]: 220 nM | GI50 (ACHN): 100 nM | GI50 (HT-29): 50 nM | GI50 [5]: 45 nM | GI50 (OVCAR-3): 460 nM | GI50 (BT-549): 58 nM | GI50 (SN12C): 280 nM | GI50 (A498): 11600 nM | GI50 [6]: 28 nM | GI50 (DU-145): 5100 nM | GI50 (EKVX): 76 nM | GI50 (HOP-62): 10200 nM | GI50 (COLO 205): 44 nM | GI50 (TK-10): 240 nM | GI50 (NCI-H322M): 10800 nM | GI50 (IGROV-1): 1050 nM | GI50 (RXF 393): 470 nM | GI50 (OVCAR-8): 90 nM | IC50 [7]: 3600 nM | IC50 [8]: 3600 nM | GI50 (LOX IMVI): 30 nM | GI50 (UO-31): 63 nM | GI50 (NCI-H460): 68 nM | GI50 [9]: 400 nM | GI50 (SNB-75): 220 nM | GI50 (HOP-92): 121 nM | GI50 (OVCAR-5): 390 nM | GI50 (T47D): 30 nM | GI50 (A549): 98 nM | GI50 (SW-620): 43 nM | GI50 (MOLT-4): 57 nM

C=C[C@@H]1[C@@H](O)C[C@@H]2[C@]3(CC[C@]4(C)[C@@H]([C@H](C)CCC(OO)C(=C)C)CC[C@@]24C)C[C@]13CCC(=O)OC (stereo partly drawn)
IC50 [10]: 4.7 µg | IC50 [11]: 43.7 µg

CCCCCCCCCCCCCCC[C@]1(C)C[C@](C)(CC(=O)O)OO1
inhibition at 0.5 µg/mL (P388): 90% | inhibition at 10 µg/mL (HCT-8): 90%

C[C@H]1[C@H](O[C@H]2O[C@@H]3O[C@]4(C)CC[C@H]5[C@H](C)CC[C@@H]([C@H]2C)[C@@]35OO4)O[C@@H]2O[C@]3(C)CC[C@H]4[C@H](C)CC[C@@H]1[C@@]24OO3
GI50 (PC-3): 0.19 µg/mL | GI50 (HCT-15): 740 nM | GI50 (HCT-116): 710 nM | GI50 (OVCAR-4): 8.6 µg/mL | GI50 (UACC-62): 2 µg/mL | GI50 (SK-MEL-5): > 3.6 µg/mL | GI50 (CAKI-1): > 25 µg/mL | GI50 (SK-OV-3): > 25 µg/mL | GI50 (786-0): 22 µg/mL | GI50 [2]: 1040 nM | GI50 (NCI-H23): 1150 nM | GI50 (U-251): > 25000 nM | GI50 (KM12): 880 nM | GI50 (SNB-19): > 25000 nM | GI50 (SK-MEL-28): > 25 µg/mL | GI50 (SK-MEL-2): 16.9 µg/mL | GI50 (UACC-257): > 25 µg/mL | GI50 (MDA-N): 3.68 µg/mL | GI50 [3]: 660 nM | GI50 (HCC 2998): > 25000 nM | GI50 (MCF7): 1.51 µg/mL | GI50 [4]: 1.45 µg/mL | GI50 (ACHN): 3.5 µg/mL | GI50 (HT-29): 1320 nM | GI50 [5]: 7510 nM | GI50 (OVCAR-3): 8.2 µg/mL | GI50 (BT-549): 1.3 µg/mL | GI50 (SN12C): > 16.8 µg/mL | GI50 (A498): > 25 µg/mL | GI50 [6]: 610 nM | GI50 (DU-145): > 25 µg/mL | GI50 (EKVX): 2160 nM | GI50 (HOP-62): > 25000 nM | GI50 (COLO 205): 1170 nM | GI50 (TK-10): 1.7 µg/mL | GI50 (NCI-H322M): > 25000 nM | GI50 (IGROV-1): > 25 µg/mL | IC50 [7]: 52500 nM | IC50 [8]: 31200 nM | GI50 (LOX IMVI): 1 µg/mL | GI50 (UO-31): 1.7 µg/mL | GI50 (NCI-H460): > 25000 nM | GI50 [9]: > 25 µg/mL | GI50 (HOP-92): 3660 nM | GI50 (OVCAR-5): > 25 µg/mL | GI50 (T47D): 1.2 µg/mL | GI50 (A549): 18700 nM | GI50 (SW-620): 1160 nM | GI50 (MOLT-4): 2370 nM
